Measurements as given in ChEMBL document CHEMBL2380210, “Discovery of natural estrogen receptor modulators with structure-based virtual screening” (Bioorg Med Chem Lett, 2013).
Activity calls are given as the source filed them. The calls are words filed in the database; no cut-off is given here.

Legend:
Estrogen receptor [1] = molecular target: T1, Estrogen receptor (Homo sapiens, UniProt P03372); assay: Antagonist activity at human estrogen receptor-alpha by yeast two-hybrid assay in presence of SRC1
T1 sequence (P03372 whole entry): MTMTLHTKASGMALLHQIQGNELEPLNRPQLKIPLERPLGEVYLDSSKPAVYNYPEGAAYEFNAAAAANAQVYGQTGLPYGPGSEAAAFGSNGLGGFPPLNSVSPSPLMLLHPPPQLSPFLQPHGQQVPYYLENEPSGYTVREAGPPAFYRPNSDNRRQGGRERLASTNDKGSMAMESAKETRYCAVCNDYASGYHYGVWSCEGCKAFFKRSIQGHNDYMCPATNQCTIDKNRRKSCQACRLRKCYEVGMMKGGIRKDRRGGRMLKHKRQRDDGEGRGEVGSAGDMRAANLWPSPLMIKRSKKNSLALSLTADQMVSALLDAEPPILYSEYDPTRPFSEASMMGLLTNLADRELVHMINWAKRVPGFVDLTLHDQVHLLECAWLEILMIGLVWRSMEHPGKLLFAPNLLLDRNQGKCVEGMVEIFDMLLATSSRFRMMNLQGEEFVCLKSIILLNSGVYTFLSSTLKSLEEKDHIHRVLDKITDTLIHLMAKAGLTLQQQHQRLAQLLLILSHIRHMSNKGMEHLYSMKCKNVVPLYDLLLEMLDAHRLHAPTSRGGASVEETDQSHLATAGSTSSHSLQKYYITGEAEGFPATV

Estrogen receptor beta [2] = molecular target: T2, Estrogen receptor beta (Homo sapiens, UniProt Q92731)
T2 sequence (Q92731 whole entry): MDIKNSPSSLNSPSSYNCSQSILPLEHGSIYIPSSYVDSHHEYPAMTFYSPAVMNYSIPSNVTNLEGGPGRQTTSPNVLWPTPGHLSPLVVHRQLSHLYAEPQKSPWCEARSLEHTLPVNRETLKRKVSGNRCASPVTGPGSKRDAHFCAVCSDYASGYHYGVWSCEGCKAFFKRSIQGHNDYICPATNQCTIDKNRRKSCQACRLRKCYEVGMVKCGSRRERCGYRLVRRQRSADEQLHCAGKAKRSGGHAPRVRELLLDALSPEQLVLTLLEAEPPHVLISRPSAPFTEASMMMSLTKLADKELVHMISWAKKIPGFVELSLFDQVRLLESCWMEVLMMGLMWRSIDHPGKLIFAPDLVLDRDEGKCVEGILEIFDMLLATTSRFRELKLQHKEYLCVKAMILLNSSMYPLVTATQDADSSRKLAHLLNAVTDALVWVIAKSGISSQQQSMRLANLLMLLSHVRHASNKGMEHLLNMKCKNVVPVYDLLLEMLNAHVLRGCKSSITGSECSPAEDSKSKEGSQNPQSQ
Description: Antagonist activity at human estrogen receptor-beta by yeast two-hybrid assay in presence of SRC1

[3] = molecular target: T3, Estrogen receptor (Homo sapiens) (UniProt P03372); assay: Antagonist activity at human estrogen receptor-alpha at 25 uM by yeast two-hybrid assay in presence of SRC1
T3 sequence (whole entry): T1 sequence (P03372 whole entry)

Estrogen receptor [4] = molecular target: T1, Estrogen receptor; assay: Agonist activity at human estrogen receptor-alpha by yeast two-hybrid assay in presence of SRC1
Estrogen receptor beta [5] = molecular target: T2, Estrogen receptor beta; remark: listed apart in the source
Description: Agonist activity at human estrogen receptor-beta by yeast two-hybrid assay in presence of SRC1

Homo sapiens = species: Homo sapiens; assay: Selectivity ratio of EC50 for human estrogen receptor-alpha to EC50 for human estrogen receptor-beta

| EC50 (Estrogen receptor [1]) | EC50 (Estrogen receptor beta [2]) | SMILES | further results |
| --- | --- | --- | --- |
| 48.4 µM | 49.2 µM | C=CCc1ccc(OC)c(-c2cc(C=O)cc(O)c2O)c1 | – |
| 8.32 µM | 2.76 µM | C/C(=C/C(=O)C[C@@H](C)[C@]1(C)CC[C@@]2(C)C3=CCC4C(C)(C)C(=O)CC[C@]4(C)[C@@H]3CCC21)C(=O)O (stereo partly drawn) | – |
| 2.55 µM | 4.68 µM | C=C(C)[C@@H]1[C@@H]2O[C@@H]2[C@@H]2[C@]3(CC[C@]4(C)[C@@H]([C@H](C)CC/C=C(\C)C(=O)O)CC[C@@]24C)C[C@]13CCC(=O)O | – |
| – | 33.8 µM | C=C(C)[C@@H]1[C@H](O)C[C@@H]2[C@]3(CC[C@]4(C)[C@@H]([C@H](C)CC/C=C(\C)C(=O)O)CC[C@@]24C)C[C@]13CCC(=O)O | Activity [3]: inactive |
| – | 25.3 µM | C=C(C)[C@@H]1[C@H](O)C[C@@H]2C(=CC[C@]3(C)[C@@H]([C@H](C)CC/C=C(\C)C(=O)O)CC[C@@]23C)[C@@]1(C)CCC(=O)O | Activity [3]: inactive |
| – | – | O=C(O)/C=C/c1ccc(O)cc1 [COUMARIC ACID] | EC50 (Estrogen receptor [4]): 16.1 µM; EC50 (Estrogen receptor beta [5]): 4890 nM |
| – | 72.4 µM | C=C(C)[C@@H]1[C@H](O)C[C@@H]2C(=CC[C@]3(C)[C@@H]([C@H](C)CC/C=C(\C)C(=O)OC)CC[C@@]23C)[C@@]1(C)CCC(=O)O | Activity [3]: inactive |
| – | – | O=C(Cc1ccc(O)cc1)c1ccc(O)cc1O | EC50 (Estrogen receptor [4]): 2.03 µM; EC50 (Estrogen receptor beta [5]): 500 nM |
| – | – | CCOC(=O)c1ccc(O)cc1 [ETHYLPARABEN] | Ratio EC50 (Homo sapiens): 20; EC50 (Estrogen receptor [4]): 38.2 µM; EC50 (Estrogen receptor beta [5]): 1860 nM |
| 8.17 µM | 4.28 µM | CC(C)(O)c1ccc2c(c1)C(=O)C[C@H]1[C@@](C)(C(=O)O)CCC[C@]21C | – |

| SMILES | EC50 (Estrogen receptor [1]) | EC50 (Estrogen receptor beta [2]) | further results |
| --- | --- | --- | --- |
| C/C(=C/C(=O)C[C@@H](C)[C@]1(C)CC[C@@]2(C)C3=CCC4C(C)(C)[C@H](O)CC[C@]4(C)[C@@H]3CC=C21)C(=O)O (stereo partly drawn) | 12.6 µM | 17.7 µM | – |
